The values below are quoted from earlier work in patent US20230390221A1, “PHARMACEUTICAL COMPOSITIONS WITH LOW AMOUNTS OF NITROSAMINE IMPURITIES AND METHODS FOR PRODUCING THE SAME” (Zentiva K.S., priority 2020, published 2023).

The conditions of the data set: limit set by EMA or FDA.

Turning to `CCN(CC)N=O` [NDEA, N-nitrosodiethylamine], the acceptable daily limits was 26.5 ng/day.

For `CN(C)N=O` [NDMA, N-nitrosodimethylamine], the acceptable daily limits is given as 96 ng/day.
